What was measured:
[1] = system: Erysiphe graminis tritici (powdery mildew); assay: Plant pathology screen (Test 1), powdery mildew on wheat; conditions: Blumeria graminis, in Triticum aestivum, foliar, read-out: POWD MDEW control rating
[2] = system: Puccinia recondita tritici (leaf rust); assay: Plant pathology screen (Test 1), leaf rust on wheat; conditions: in Triticum aestivum, foliar, read-out: LEAF RUST control rating
Description: (§5) This screen was used to evaluate the efficacy of the present compounds against a variety of different organisms that cause plant diseases.
(§6) The test compounds were formulated for application by dissolving 50 mg of the compound into 1.25 ml of solvent. The solvent was prepared by mixing 50 ml of "Tween 20" (polyoxyethylene (20) sorbitan monolaurate emulsifier) with 475 ml of acetone and 475 ml of ethanol. The solvent/compound solution was diluted to 125 ml with deionized water. The resulting formulation contains 400 ppm test chemical. Lower concentrations were obtained by serial dilution with the solvent-surfactant mixture.
The formulated test compounds were applied by foliar spray.
(§7) The formulated technical compounds were sprayed on all foliar surfaces of the host plants (or cut berry) to past run-off. Single pots of each host plant were placed on raised, revolving pedestals in a fume hood. Test solutions were sprayed on all foliar surfaces. All treatments were allowed to dry and the plants were inoculated with the appropriate pathogens within 2-4 hours.
(§8) The effectiveness of test compounds in controlling disease was rated using the following scale.

[3] = system: Southern corn rootworm (Diabrotica undecimpuctata howardi Barber); assay: Mite/insect screen, corn rootworm; format: in vivo; conditions: soil; for mortality at 12 ppm / mortality at 24 ppm: Diabrotica, read-out: CRW results (percent mortality); for mortality at 12 ppm: CRW rate 12.00 ppm
Description: (§1) The compounds of Examples were tested for miticidal and insecticidal activity in the following mite/insect screen.
(§2) Each test compound was formulated by dissolving the compound in acetone/alcohol (50:50) mixture containing 23 g of "TOXIMUL R" (sulfonate/nonionic emulsifier blend) and 13 g of "TOXIMUL S" (sulfonate/nonionic emulsifier blend) per liter. These mixtures were then diluted with water to give the indicated concentrations.
Activity on Southern corn rootworm (Diabrotica undecimpuctata howardi Barber) was evaluated by adding two ml of tap water, a presoaked corn seed, and 15 g of dry sandy soil to a one ounce plastic container. The soil was treated with 1 mL of test solution containing a predetermined concentration of test compound. After six to 12 hours of drying, five 2-3 instar corn rootworm larvae were added to the individual cups, which were then capped and held at 23° C.
(§3) After standard exposure periods, percent mortality and phytotoxicity were evaluated. […] The following abbreviations are used in Table 3:
CRW refers to corn rootworm

[4] = system: southern armyworm (Spodopetra eridania Cramer); assay: Mite/insect screen, Southern armyworm; format: in vivo; conditions: sprayed leaves; for mortality at 200 ppm / mortality at 400 ppm: Spodoptera eridania, read-out: SAW results (percent mortality); for mortality at 200 ppm: rate 200 ppm
Description: as §1, §2
(§4) Twospotted spider mites (Tetranychus urticae Koch) and melon aphids (Aphis gossvpii Glover) were introduced on squash cotyledons and allowed to establish on both leaf surfaces. Other plants in the same treatment pot were left uninfested. The leaves were then sprayed with 5 ml of test solution using a DeVilbiss atomizing sprayer at 10 psi. Both surfaces of the leaves were covered until runoff, and then allowed to dry for one hour. Two uninfested leaves were then excised and placed into a Petri dish containing larval southern armyworm (Spodopetra eridania Cramer).
as §3
SAW refers to Southern armyworm

[5] = system: Botrytis cinerea (gray mold); assay: Plant pathology screen (Test 1), gray mold on grape berries; conditions: read-out: GRAY MOLD control rating
Description: as §5, §6
The formulated test compounds were applied by foliar spray. The following plant pathogens and their corresponding plants were employed.
as §7, §8

[6] = system: Twospotted spider mites (Tetranychus urticae Koch); assay: Mite/insect screen, twospotted spider mites; format: in vivo; conditions: Tetranychus urticae, sprayed leaves, read-out: SM results (percent mortality); for mortality at 200 ppm: rate 200 ppm; for mortality at 400 ppm: rate 400 ppm
Description: as §1, §2, §4, §3
SM refers to twospotted spider mites

[7] = system: melon aphids (Aphis gossvpii Glover); assay: Mite/insect screen, melon aphids; format: in vivo; conditions: sprayed leaves; for mortality at 200 ppm / mortality at 400 ppm: Aphis, read-out: MA results (percent mortality); for mortality at 200 ppm: rate 200 ppm
Description: as §1, §2, §4, §3
MA refers to melon aphids.

[8] = system: Pyricularia oryzae (rice blast); assay: whole plant or invertebrate; format: in vivo; conditions: foliar, read-out: RICE BLAST control rating
[9] = system: Pseudoperonospora cubensis (downy mildew); assay: Plant pathology screen (Test 1), downy mildew on squash; conditions: foliar, read-out: DOWN MDEW control rating

Structure (SMILES) | pest or weed control at 400 µg/mL [1] [%] | pest or weed control at 400 µg/mL [2] [%] | mortality at 12 ppm [3] [%] | mortality at 24 ppm ([3]; CRW rate 24.00 ppm) [%] | mortality at 200 ppm [4] [%] | mortality at 400 ppm ([4]; rate 400 ppm) [%] | pest or weed control at 400 µg/mL [5] [%] | mortality at 200 ppm [6] [%] | mortality at 400 ppm [6] [%] | mortality at 200 ppm [7] [%] | mortality at 400 ppm ([7]; rate 400 ppm) [%] | pest or weed control at 400 µg/mL [8] [%] | pest or weed control at 400 µg/mL [9] [%] | CRW results (percent mortality) ([3]; CRW rate 24.00 ppm) [%] | SAW results (percent mortality) ([4]; rate 400 ppm) [%] | MA results (percent mortality) ([7]; rate 400 ppm) [%]
Cc1oc2ncnc(NCCC3CCC4CCCCC4C3)c2c1C (stereo not drawn) [Example 18, N-[2-(decahydro-2-naphthyl)ethyl]-5,6-dimethylfuro[2,3-d]pyrimidin-4-amine] | 0 to 19 | 0 to 19 | 0 | 0 | 0 | 0 | 20 to 89 | 0 | 0 | 0 | 0 | 0 to 19 | 0 to 19 | – | – | –
Cc1coc2ncnc(NCCc3ccccc3)c12 [Example 19, 5-methyl-N-(2-phenylethyl)furo[2,3-d]pyrimidin-4-amine] | 20 to 89 | 90 to 100 | 0 | 0 | 0 | 0 | 0 to 19 | 0 | 0 | 0 | 90 | 0 to 19 | 90 to 100 | – | – | –
Cc1oc2ncnc(NCCc3ccc(C(C)(C)C)cc3)c2c1C [Example 20, N-[2-[4-(t-butyl)phenyl]ethyl]-5,6-dimethylfuro[2,3-d]pyrimidin-4-amine] | 0 to 19 | 90 to 100 | 0 | 0 | 0 | 0 | 0 to 19 | 0 | – | 0 | 0 | 20 to 89 | 90 to 100 | 0 | 0 | 0
Cc1coc2ncnc(NCCc3ccc4ccccc4c3)c12 [Example 21, 5-methyl-N-[2-(2-naphthyl)ethyl]furo[2,3-d]pyrimidin-4-amine] | 90 to 100 | 90 to 100 | 100 | 100 | 0 | 0 | 0 to 19 | 80 | 60 | 100 | 80 | 0 to 19 | 90 to 100 | – | – | –
Cc1oc2ncnc(NCCc3ccc4ccccc4c3)c2c1C [Example 22, 5,6-dimethyl-N-[2-(2-naphthyl)ethyl]furo[2,3-d]pyrimidin-4-amine] | 0 to 19 | 0 to 19 | 0 | 0 | 0 | 0 | 0 to 19 | 0 | 0 | 0 | 0 | 0 to 19 | 0 to 19 | – | – | –
Cc1oc2ncnc(NCCc3cccc(C(F)(F)F)c3)c2c1C [Example 23, 5,6-dimethyl-N-[2-[3-(trifluoromethyl)phenyl]ethyl]furo[2,3-d]pyrimidin-4-amine] | 0 to 19 | 20 to 89 | 100 | 0 | 0 | 0 | 0 to 19 | 0 | 0 | 0 | 0 | 0 to 19 | 0 to 19 | – | – | –
Cc1ccc(CCNc2ncnc3oc(C)c(C)c23)cc1 [Example 24, 5,6-dimethyl-N-[2-(4-methylphenyl)ethyl]furo[2,3-d]pyrimidin-4-amine] | 0 to 19 | 90 to 100 | 0 | 0 | 0 | 0 | 0 to 19 | 0 | 0 | 0 | 0 | 20 to 89 | 0 to 19 | – | – | –
COc1ccc(CCNc2ncnc3oc(C)c(C)c23)cc1OC [Example 25, 5,6-dimethyl-N-[2-(3,4-dimethoxyphenyl)ethyl]furo[2,3-d]pyrimidin-4-amine] | 0 to 19 | 20 to 89 | 0 | 0 | 0 | 0 | 0 to 19 | 0 | 0 | 0 | 0 | 0 to 19 | 0 to 19 | – | – | –
Cc1oc2ncnc(NCC(Cc3ccc(F)cc3)c3ccc(Cl)cc3)c2c1C (stereo not drawn) [Example 26, N-[2-(4-chlorophenyl)-3-(4-fluorophenyl)propyl]-5,6-dimethylfuro[2,3-d]pyrimidin-4-amine] | 0 to 19 | 0 to 19 | 0 | 0 | 0 | 0 | 0 to 19 | 0 | 0 | 0 | 0 | 0 to 19 | 0 to 19 | – | – | –
COc1ccc(CCNc2ncnc3occ(C)c23)cc1OC [Example 27, N-[2-(3,4-dimethoxyphenyl)ethyl]-5-methylfuro[2,3-d]pyrimidin-4-amine] | 0 to 19 | 90 to 100 | 0 | 0 | 0 | 0 | 0 to 19 | 0 | 0 | 0 | 0 | 0 to 19 | 90 to 100 | – | – | –
COc1ccccc1Oc1ncnc2oc(C)c(C)c12 [Example 28, 5,6-dimethyl-4-(2-methoxyphenoxy)furo[2,3-d]pyrimidine] | 0 to 19 | 0 to 19 | 0 | 0 | 0 | 0 | 0 to 19 | 90 | 0 | 30 | 0 | 0 to 19 | 0 to 19 | – | – | –
Cc1ccccc1Oc1ncnc2oc(C)c(C)c12 [Example 29, 5,6-dimethyl-4-(2-methylphenoxy)furo[2,3-d]pyrimidine] | 20 to 89 | 20 to 89 | 0 | 0 | 0 | 0 | 0 to 19 | 0 | 0 | 0 | 0 | 20 to 89 | 20 to 89 | – | – | –
COc1ccc(CCNc2ncnc3oc4c(c23)CCCC4)cc1 [Example 30, N-[2-(4-methoxyphenyl)ethyl]-5,6,7,8-tetrahydrobenzofuro[2,3-d]pyrimidin-4-amine] | 0 to 19 | 20 to 89 | 0 | 0 | 0 | 90 | 0 to 19 | 0 | 0 | 0 | 0 | 0 to 19 | 20 to 89 | – | – | –

Reference: US5486516A, “Furopyrimidine derivatives” (DowElanco, priority 1993, dated 1996)
